This passage reports Dmax and DC50 results from US20260092061A1, “COMPOUNDS FOR TARGETED PROTEIN DEGRADATION” (Amphista Therapeutics Limited, priority 2022, published 2026).

Some results are limits rather than exact numbers.

The test has as its target T1, BRD9 (Homo sapiens, UniProt Q9H8M2).
T1 sequence (Q9H8M2 1-597): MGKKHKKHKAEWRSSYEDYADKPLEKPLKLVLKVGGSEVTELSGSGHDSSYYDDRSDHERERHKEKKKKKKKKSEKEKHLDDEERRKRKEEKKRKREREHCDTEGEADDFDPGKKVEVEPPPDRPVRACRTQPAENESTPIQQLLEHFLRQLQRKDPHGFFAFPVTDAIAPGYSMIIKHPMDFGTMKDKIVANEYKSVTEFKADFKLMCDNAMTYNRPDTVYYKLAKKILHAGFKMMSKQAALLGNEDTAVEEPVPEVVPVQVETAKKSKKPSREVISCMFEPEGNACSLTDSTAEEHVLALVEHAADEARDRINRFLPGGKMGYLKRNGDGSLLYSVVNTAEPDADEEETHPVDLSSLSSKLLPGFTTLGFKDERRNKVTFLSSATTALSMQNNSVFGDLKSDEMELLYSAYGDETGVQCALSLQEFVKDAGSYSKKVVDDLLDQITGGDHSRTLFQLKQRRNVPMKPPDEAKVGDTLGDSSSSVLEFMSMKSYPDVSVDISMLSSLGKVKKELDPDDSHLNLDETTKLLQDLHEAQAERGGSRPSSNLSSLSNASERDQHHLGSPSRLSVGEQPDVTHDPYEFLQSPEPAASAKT
Kind of test: BRD9 degradation, HiBiT-BRD9 KI HEK293 (LgBiT) cells, NanoGlo Lytic Endpoint assay (Assay Protocol 1). The test is classed as cell-based. The conditions noted are these: BRD9 degradation; for Dmax at 1 µM / DC50: Table 2, Assay Protocol 1; for Dmax at 1 µM: 1 μM compound at 6 h of treatment, read-out: Assay 1 Dmax; for DC50: 6 h of treatment, read-out: Assay 1 DC50. Here is the method:
HiBiT-BRD9 KI HEK293 (LgBiT) Cells (Promega CS3023412) were seeded at 8000 cells per well (38 μL) in sterile white bottom 384 well plates (Invitrogen 164610 or Greiner 781080) and incubated overnight at 37° C. with 5% CO2. The next day, compounds were prepared at 1000× final concentration in DMSO and diluted 1:100 in media (DMEM PAN Biotech P04-03550+10% FBS ATCC 302025). 4 μL compound was added to each well of the cell plate and incubated for 6 h at 37° C. with 5% CO2 BRD9 expression was quantified using the NanoGlo Lytic Endpoint assay (Promega N3050). The lytic buffer was equilibrated to room temperature for 10-15 min before lytic reagent was prepared by adding substrate (1:50) and LgBit protein (1:100) in lytic buffer. 40 μL lytic reagent mix was added to each well of the cel plate and plates were centrifuged briefly at ˜50g. Plates were incubated with shaking (350 RPM) for 12-24 min before reading using the LUM plus module of a BMG Pherastar FSX. Data was analysed using Dotmatics software and % BRD9 remaining was calculated by normalisation to average data from high and low control wells (DMSO treated cels and no cells respectively).
(In general: HiBiT is a short tag that completes a luciferase, so light tracks the accessible tagged protein.)

The term Dmax denotes the greatest extent of degradation seen. What is called DC50 is the midpoint of the concentration-degradation curve.

On to `COc1cc(-c2cn(C)c(=O)c(C)c2C)cc(OC)c1CN1CC2CC(C1)N2C(=O)/C(C#N)=C/c1nccs1` (mixture of isomers) [BRD9l, (E/Z)-2-(3-(2,6-dimethoxy-4-(1,4,5-trimethyl-6-oxo-1,6-dihydropyridin-3-yl)benzyl)-3,6-diazabicyclo[3.1.1]heptane-6-carbonyl)-3-(thiazol-2-yl)acrylonitrile], for which the greatest degradation seen (Dmax) (HEK293, Table 4, determined according to Assay Protocol 1, read-out: Dmax^1) was 50 to 70%.
Turning to `COc1cc(-c2cn(C)c(=O)c3cnccc23)cc(OC)c1CN1CCN(Cc2cccc3c2CCN(C(=O)/C(C#N)=C/c2cccc(Br)n2)C3C)CC1` (mixture of isomers) [Compound A5, (E/Z)-3-(6-bromopyridin-2-yl)-2-(5-((4-(2,6-dimethoxy-4-(2-methyl-1-oxo-1,2-dihydro-2,7-naphthyridin-4-yl)benzyl)piperazin-1-yl)methyl)-1-methyl-1,2,3,4-tetrahydroisoquinoline-2-carbonyl)acrylonitrile], the 50% degradation concentration (DC50) is < 1.25 nM. Further, for the setting “HEK293”, the greatest degradation seen (Dmax) at 1 µM fell in the range of 40 to 70%.
Consider `COc1cc(-c2cn(C)c(=O)c3cnccc23)cc(OC)c1CN1CCN(Cc2cccc3c2CCN(C(=O)/C(C#N)=C/c2nc4ccccc4s2)C3C)CC1` (mixture of isomers) [Compound A6], for which the 50% degradation concentration (DC50) was < 1.25 nM. Also, the Dmax at 1 µM (HEK293) is > 75%.
As to `COc1cc(-c2cn(C)c(=O)c3cnccc23)cc(OC)c1CN1CCN(Cc2cccc3c2CCN(C(=O)/C(C#N)=C\c2nc(C)cs2)C3C)CC1` (mixture of isomers) [Compound A9, (E/Z)-2-(5-((4-(2,6-dimethoxy-4-(2-methyl-1-oxo-1,2-dihydro-2,7-naphthyridin-4-yl)benzyl)piperazin-1-yl)methyl)-1-methyl-1,2,3,4-tetrahydroisoquinoline-2-carbonyl)-3-(4-methylthiazol-2-yl)acrylonitrile], the DC50 is < 1.25 nM. Moreover, where the note is “HEK293”, the maximal degradation (Dmax) at 1 µM was in the range of 40 to 70%.
The like results for `COc1cc(-c2cn(C)c(=O)c3cnccc23)cc(OC)c1CN1CCN(Cc2cccc3c2CCN(C(=O)/C(C#N)=C\c2ccon2)C3C)CC1` (mixture of isomers) [Compound A11, (E/Z)-2-(5-((4-(2,6-dimethoxy-4-(2-methyl-1-oxo-1,2-dihydro-2,7-naphthyridin-4-yl)benzyl)piperazin-1-yl)methyl)-1-methyl-1,2,3,4-tetrahydroisoquinoline-2-carbonyl)-3-(isoxazol-3-yl)acrylonitrile] were, in that order, 1.25 to 10 nM and 40 to 70%.
Regarding `COc1cc(-c2cn(C)c(=O)c3cnccc23)cc(OC)c1CN1CCN(Cc2cccc3c2CCN(C(=O)/C(C#N)=C\c2ccc(F)cn2)C3C)CC1` (mixture of isomers) [Compound A12, (E/Z)-2-(5-((4-(2,6-dimethoxy-4-(2-methyl-1-oxo-1,2-dihydro-2,7-naphthyridin-4-yl)benzyl)piperazin-1-yl)methyl)-1-methyl-1,2,3,4-tetrahydroisoquinoline-2-carbonyl)-3-(5-fluoropyridin-2-yl)acrylonitrile], the DC50 was in the range of 10 to 25 nM. Besides, under “HEK293”, the Dmax at 1 µM lay within 40 to 70%.
The like results for `COc1cc(-c2cn(C)c(=O)c3cnccc23)cc(OC)c1CN1CCN(Cc2cccc3c2CCN(C(=O)/C(C#N)=C\c2nc(C)c(C)s2)C3C)CC1` (mixture of isomers) [Compound A13, (E/Z)-2-(5-((4-(2,6-dimethoxy-4-(2-methyl-1-oxo-1,2-dihydro-2,7-naphthyridin-4-yl)benzyl)piperazin-1-yl)methyl)-1-methyl-1,2,3,4-tetrahydroisoquinoline-2-carbonyl)-3-(4,5-dimethylthiazol-2-yl)acrylonitrile] were, in that order, 1.25 to 10 nM and 40 to 70%.
Regarding `COc1cc(-c2cn(C)c(=O)c3cnccc23)cc(OC)c1CN1CCN(Cc2cccc3c2CCN(C(=O)/C(C#N)=C\C2CCOCC2)C3C)CC1` (mixture of isomers) [Compound A17, (E/Z)-2-(5-((4-(2,6-dimethoxy-4-(2-methyl-1-oxo-1,2-dihydro-2,7-naphthyridin-4-yl)benzyl)piperazin-1-yl)methyl)-1-methyl-1,2,3,4-tetrahydroisoquinoline-2-carbonyl)-3-(tetrahydro-2H-pyran-4-yl)acrylonitrile], the DC50 is 1.25 to 10 nM. Under “HEK293”, the maximal degradation (Dmax) at 1 µM was in the range of 40 to 70%.
As to `COc1cc(-c2cn(C)c(=O)c3cnccc23)cc(OC)c1CN1CCN(Cc2cccc3c2CCN(C(=O)/C(C#N)=C\C(C)(C)CF)C3C)CC1` (mixture of isomers) [Compound A18, (E/Z)-2-(5-((4-(2,6-dimethoxy-4-(2-methyl-1-oxo-1,2-dihydro-2,7-naphthyridin-4-yl)benzyl)piperazin-1-yl)methyl)-1-methyl-1,2,3,4-tetrahydroisoquinoline-2-carbonyl)-5-fluoro-4,4-dimethylpent-2-enenitrile], the DC50 is < 1.25 nM. The Dmax at 1 µM (HEK293) is 40 to 70%.
The like results for `COc1cc(-c2cn(C)c(=O)c3cnccc23)cc(OC)c1CN1CCN(Cc2cccc3c2CCN(C(=O)/C(C#N)=C\C(C)C)C3C)CC1` (mixture of isomers) [Compound A19, (E/Z)-2-(5-((4-(2,6-dimethoxy-4-(2-methyl-1-oxo-1,2-dihydro-2,7-naphthyridin-4-yl)benzyl)piperazin-1-yl)methyl)-1-methyl-1,2,3,4-tetrahydroisoquinoline-2-carbonyl)-4-methylpent-2-enenitrile] were, in that order, 1.25 to 10 nM and 40 to 70%.
The like results for `COc1cc(-c2cn(C)c(=O)c(C)c2C)cc(OC)c1CN1CCN(Cc2cccc3c2CCN(C(=O)/C(C#N)=C/c2nc4ccccc4s2)C3C)CC1` (mixture of isomers) [Compound A20] were, in that order, 1.25 to 10 nM and > 75%.
As to `COc1cc(-c2cn(C)c(=O)c(C)c2C)cc(OC)c1CN1CCN(Cc2cccc3c2CCN(C(=O)/C(C#N)=C\c2nc(C)cs2)C3C)CC1` (mixture of isomers) [Compound A21], the 50% degradation concentration (DC50) was < 1.25 nM. Further, where the note is “HEK293”, the greatest degradation seen (Dmax) at 1 µM lay within 70 to 75%.
For `COc1cc(-c2cn(C)c(=O)c3cnccc23)cc(OC)c1CN1CCN(Cc2cccc3c2CCN(C(=O)/C(C#N)=C\c2ccns2)C3C)CC1` (mixture of isomers) [Compound A23, (E/Z)-2-(5-((4-(2,6-dimethoxy-4-(2-methyl-1-oxo-1,2-dihydro-2,7-naphthyridin-4-yl)benzyl)piperazin-1-yl)methyl)-1-methyl-1,2,3,4-tetrahydroisoquinoline-2-carbonyl)-3-(isothiazol-5-yl)acrylonitrile], in that order: 1.25 to 10 nM and 40 to 70%.
`COc1cc(-c2cn(C)c(=O)c3cnccc23)cc(OC)c1CN1CCN(Cc2cccc3c2CCN(C(=O)/C(C#N)=C\C2CCC2)C3C)CC1` (mixture of isomers) [Compound A24, (E/Z)-3-cyclobutyl-2-(5-((4-(2,6-dimethoxy-4-(2-methyl-1-oxo-1,2-dihydro-2,7-naphthyridin-4-yl)benzyl)piperazin-1-yl)methyl)-1-methyl-1,2,3,4-tetrahydroisoquinoline-2-carbonyl)acrylonitrile]: the 50% degradation concentration (DC50) is < 1.25 nM. In addition, the Dmax at 1 µM (HEK293) lay within 40 to 70%.
